Source: patent US8540967B2, “Porphyrazine optical and dual optical/MR contrast and therapeutic agents” (Hoffman/Barrett, L.L.C., priority 2008, dated 2013)

Tests used:
[1] = tested on: WI38 VA13 non-tumorigenic cells; assay: Confocal NIR fluorescence microscopy of cellular uptake, non-tumorigenic cells; type: cell-based; conditions: confocal images; 50 μM
Method: (§1) Cellular uptake monitored by confocal fluorescence microscopy is dependent on the pz's overall amphiphilicity, and qualitative analysis indicates preferential uptake into tumor cells (e.g., A549) over non-tumorigenic cells (e.g., WI38 VA13).
(§2) The MTT test was performed using the procedure disclosed in S. Lee et al., Metal-Based Drugs (2008), pages 391-418.
Therefore, compound 270, a pz having a single appended Gd^3+, was synthesized.

[2] = tested on: A549 lung carcinoma cells; assay: Confocal NIR fluorescence microscopy of cellular uptake, tumor cells; type: cell-based; conditions: confocal images; compound 247: 50 μM, 24 hr stain
Method: as §1, §2

[3] = tested on: MDA-MB-231-RFP subcutaneous tumors; assay: NIR fluorescence imaging of subcutaneous tumors in female SCID mice; type: in vivo, mouse
From the text: In a second experiment to verify that compound 247 robustly and reproducibly localizes in tumors of more than one tissue origin, female SCID mice were subcutaneously injected with MDA-MB-231-RFP cells stably expressing Red Fluorescent Protein (RFP). This approach provides excellent confirming information because (a) palpable subcutaneous tumors are easily identified prior to imaging as opposed to bone tumors which are difficult to detect non-invasively; (b) RFP-expressing tumors are visible through the skin as opposed to GFP tumors, which require removal of skin prior to imaging; (c) pz localization in the tumor is visible during non-invasive whole animal imaging; and (d) tumors are easily harvested, fixed, and processed for histochemical and biochemical analyses. Five mice were dosed with 20 nmol of compound 247 in 7.5% DMSO, administered intravenously. The […] wavelength used for RFP excitation was 535 nm with emission detected using a 565-615 nm bandpass filter. Compound 247 was excited using a 625 nm bandpass and emission detected at 700 nm. […] Therefore, there is no penetration of undesired signal during imaging. Images were acquired for RFP, as well as pz fluorescence, after 5, 24, 32 and 48 hours. […] With this remarkable contrast, compound 247 therefore acts as a ‘turn-on’ NIR-fluorescence tumor imager. At the conclusion of the 48 hour experiment, the tumors were excised and processed for antibody staining. Slices were stained for nuclei (DAPI) to determine the localization of pzs within heterogeneous 3-dimensional tumors. […] The important benefit of having the RFP and pz survive tissue processing is noted.

[4] = tested on: WI38 VA13 non-tumorigenic cells; assay: MTT assay, non-tumorigenic cells; type: cell-based; conditions: 50 μM
Method: as §2

A549 tumor cells = assay: MTT assay, tumor cells; type: cell-based; conditions: 50 μM
Method: as §2

[5] = tested on: PC3-EGFP (human prostate tumor cells stably expressing GFP) tibia tumors; assay: Biodistribution by NIR fluorescence imaging in mice with tibia tumors; type: in vivo, mouse
Method: In one experiment, male FVB/n5 Rag-1−/− mice were injected with […] PC3-EGFP (human prostate tumor cells stably expressing GFP) in the tibia four weeks prior to imaging with pzs. Prior to imaging, the mice were anesthetized with 4% isoflurane and injected with 20 nmol of compound 247 (150 μL, 7.5% DMSO) intravenously via the tail vein. Fluorescent images were acquired immediately and after 4, 24, and 42 hours. […] GFP images were acquired using excitation wavelengths of 465 nm and fluorescence was detected at 535 nm. X-ray images were acquired for anatomical co-registration.
The mice subsequently were euthanized, legs were excised, and images were acquired without the surrounding skin and muscle.

[6] = tested on: A549 lung carcinoma cells; assay: Time course studies of pz accumulation and cell viability; type: cell-based
Method: Time course studies also were performed using compounds 241, 243, 244, 246, 247, 249, 254, and 255 using A549 lung carcinoma cells and W138 VA13 non-tumorigenic cells. The studies confirmed accumulation of a present pz in tumor cells and a decrease in tumor cell viability.

[7] = Relaxivity (r1) of Gd-pz conjugates; type: physicochemical
Method: Dual-mode contrast agents were generated by coupling pz optical agents with gadolinium-based (Gd^3+) MR agents in order to permit co-registration of optical and MR image data. The synthetic versatility of the present pz structure allows a variety of strategies for attaching multiple MR imaging agents, for example, Gd^3+ chelates, to the pz structure. […] The relaxivity of a Gd^3+ chelate attached to a pz ranges from about 10 to about 14 mM-1s-1/Gd (Table 1).
In the preparation of Gd-pzs, ‘click’ chemistry was used to append 4 and 8 Gd^3+ chelates to an M[pz(A2; B2)] pz, leading to the Gd8-Mpz conjugate (M=Zn, Cu) shown above, and analogous Gd-4-Mpz conjugates having one chelate per pz ‘arm’. […] This is significant because the higher the observed relaxivity of the conjugate, the greater its efficacy as an in vivo MR contrast agent. Importantly, these conjugates are suitable as dual-mode contrast agents because the presence of as many as eight Gd agents has no significant influence on the pz luminescence for the M=Zn complex. In addition, the pz-Gd conjugates are water soluble and can be administered to rodents without the addition of DMSO.

Row | Structure (SMILES) | Uptake into WI38 VA13 cells (NIR fluorescence) [1] | Uptake/accumulation in A549 lung carcinoma cells (NIR fluorescence) [2] | Time until pz fluorescence detectable in tumor ([3]; 20 nmol i.v. in 7.5% DMSO) | pz fluorescence intensity in tumor over time ([3]; 20 nmol i.v., over the 48 hour experiment) | pz fluorescence in other organs or tissues ([3]; 20 nmol i.v., up to 48 hours) | Accumulation in MDA-231 tumors in vivo ([3]; 20 nmol tail vein, 5 to 48 hours) | Localization within excised tumor sections ([3]; tumors excised at 48 hours, DAPI-stained slices) | Toxicity to non-tumorigenic cells (MTT) [4] | Toxicity to tumor cells (MTT) (A549 tumor cells) | pz fluorescence location after 4 hours ([5]; 20 nmol i.v. tail vein, 4 hours) | pz fluorescence location after 24 hours ([5]; 20 nmol i.v. tail vein, 24 hours) | Red fluorescence location in excised legs ([5]; 20 nmol, excised legs without skin and muscle, overlay with GFP) | Retention in tumor-free tibia ([5]; mouse 3 without tumor) | Accumulation of pz in tumor cells [6] | Tumor cell viability [6] | Relaxivity r1/Gd ([7]; per Gd) | Relaxivity r1 (molecular relaxivity) ([7]; per molecule)
1 | CO[C@]1(C)Oc2c(c3nc4nc(nc5[nH]c(nc6nc(nc2[nH]3)-c2c(OC(C)C)ccc(OC(C)C)c2-6)c2c5O[C@@](C)(OC)[C@](C)(OC)O2)-c2c(OC(C)C)ccc(OC(C)C)c2-4)O[C@@]1(C)OC [Compound 247] | lesser uptake | excellent uptake | ≤ 5 h | increased dramatically | no pz fluorescence in other mouse organs or tissues | accumulates over time | precise colocalization of compound 247 with the tumor cytosol | non-toxic | mildly toxic | seen in the liver | highly localized in the mouse tibia tumors | localized in the tumors | not non-specifically retained in the bones | accumulation | decrease | – | –
2 | O=C([O-])CN1CCN(CC(=O)[O-])CCN(CC(=O)O)CCN(CC(=O)[O-])CC1.[Gd+3] [Gd-DOTA, gadolinium tetrazacyclododecanetetraacetic acid] | – | – | – | – | – | – | – | – | – | – | – | – | – | – | – | 3.2 mM⁻¹ s⁻¹ | 3.2 mM⁻¹ s⁻¹
